The values that follow come from patent US20090076122A1, “PARP Modulators and Treatment of Cancer” (BIPAR SCIENCES, INC., priority 2005, published 2009).

The test system of one assay is solid tumor colon cancer. Kind of assay: Treatment of a subject suffering from solid tumor colon cancer. Type of assay: in vivo. The note with it: orally or parenterally; after few days. The protocol: A subject suffering from solid tumor colon cancer is treated with a therapeutically effective amount of compound of formula
(§1) where the compound is administered orally or parenterally.

The subject of a further assay is CNS disease. Put plainly: Treatment of a subject suffering from CNS disease. Type of assay: in vivo. Particulars: orally or parenterally; after few days. The protocol:
A subject suffering from CNS disease is treated with a therapeutically effective amount of compound of formula
as §1

Assay [1] concerns the target T1, PARG activity of Jurkat cell nuclear extract (Homo sapiens, UniProt Q86W56).
T1 construct: endogenous in cells; host or cells: Jurkat cell nuclear extract
Put plainly: Effect of ATP on the glycohydrolase activity of Jurkat cell nuclear extract. The note with it: 8 mM ATP; polyADP-ribosylated PARP-1 with long polymers (50 ADP-ribose units); FIG. 4. Type of assay: biochemical. The protocol:
Poly(ADP-ribose)glycohydrolase (PARG) is purchased from Biomol or Alexis Co, which enzymes are equal in performance. Jurkat cells are cultured as reported (Buday et al. (1996) J Biol Chem 271:6159-6163) and nuclei are prepared by a published method (Smirnova et al. (2000) J Biol Chem 275:9377-9384). Enzymatic assays for PARP-1 are performed as published (deMurcia (2000) From DNA-damage and Stress Signalling to Cell Death: Poly ADP-ribosylation Reactions). PARG activity is analyzed with polyADP-ribosylated PARP-1 as substrate, containing long chains synthesized with spermine as cofactor (Kun et al. (2004) Biochemistry 43:210-216), or short chains where the cofactor is histone H1. The polyADP-ribose is labeled either with 3H or by biotinylated-NAD. PARG activity is quantitatively measured either by assaying the liberated 3H-ADP-ribose by TLC (Kirsten et al. (1991) Exp Cell Res 194:1-8) (chromatography carried out on PEI-cellulose sheets with 0.9 M acetic acid and 0.3 M LiCl as solvent) or by immunoassay of the remaining biotinylated (ADP-ribose)n (Bakondi et al. (2004) Exp Dermatol 13:170-178). All other reagents are of highest analytical purity. Poly(ADP-ribosylated)-PARP-1 (2 μg protein is incubated with 50 μM of biotinylated-NAD as described above) and is attached to the walls of 96-well plates. ([…] et al. (1989) Nucl. Acids Res. 17:5404). […]

For the next assay, the system named is purified PARG. Kind of assay: ATP sensitivity of purified PARG (PAR chain length, substrate concentration). Type of assay: biochemical. Particulars: 45 minutes. Here is the method:
Poly(ADP-ribose)glycohydrolase (PARG) is purchased from Biomol or Alexis Co, which enzymes are equal in performance. Jurkat cells are cultured as reported (Buday et al. (1996) J Biol Chem 271:6159-6163) and nuclei are prepared by a published method (Smirnova et al. (2000) J Biol Chem 275:9377-9384). Enzymatic assays for PARP-1 are performed as published (deMurcia (2000) From DNA-damage and Stress Signalling to Cell Death: Poly ADP-ribosylation Reactions). PARG activity is analyzed with polyADP-ribosylated PARP-1 as substrate, containing long chains synthesized with spermine as cofactor (Kun et al. (2004) Biochemistry 43:210-216), or short chains where the cofactor is histone H1. The polyADP-ribose is labeled either with 3H or by biotinylated-NAD. PARG activity is quantitatively measured either by assaying the liberated 3H-ADP-ribose by TLC (Kirsten et al. (1991) Exp Cell Res 194:1-8) (chromatography carried out on PEI-cellulose sheets with 0.9 M acetic acid and 0.3 M LiCl as solvent) or by immunoassay of the remaining biotinylated (ADP-ribose)n (Bakondi et al. (2004) Exp Dermatol 13:170-178). All other reagents are of highest analytical purity. Short (Δ-Δ)- or long ([…]-[…])-chain PAR-PARP molecules are prepared as described in the methods and attached to the surface of assay wells. Purified PARG (15 mU/assay) is added to the wells in the presence of various concentrations of ATP and incubated for 45 minutes. The attached amount of polymers is determined in triplicate experiments (zero minute values for short chains were 0.5 OD, and 1.8 OD for long chain polymers). PARG (15 mU/assay) is incubated with various concentrations of 32P-PAR (long chain polymer) in the presence or absence of 6 mM of ATP for 45 minutes and the amount of liberated 32P-ADP-ribose is determined by TLC and liquid scintillation of the cut out portions of the plate located by autoradiography. Experiments are performed in triplicate.

Assay [2] addresses T2, PARP-1 arginine-138 mutant (isoleucine, Zn2+ finger 2) (Homo sapiens, UniProt P09874, R138I).
T2 construct: made in house; host or cells: Sf9 (baculovirus)
Put plainly: Enzymatic activity of arginine-138 (R138I) mutant PARP-1 with ATP. Format: biochemical. Particulars: arginine-138 mutated to isoleucine in Zn2+ finger 2; FIG. 1. From the text: (§2) PARP-1 is purified from calf thymus as reported earlier (Molinet et al. (1993) EMBO J. 12:2109-2117). Alternatively recombinant PARP-1 is isolated from Sodoptera Fugiperda (Sf9) cells infected with recombinant baculovirus, expressing the human PARP-1 gene, constructed according to the instructions of Pharmingen. The cDNA of the amino acid exchange mutant R34G and R138 il of PARP-1 is created by the mega primer method (Kannann et al. (1989) Nucl Acids Res 17:5404). The mutated gene is cloned into the transfer vector pV 1392 and the recombinant virus is generated by the Baculogold technology of Pharmigen. The mutated proteins are expressed in Sf9 cells, purified and assayed as reported (Huang et al. (2004) Biochemistry 43:217-223; Kirsten et al. (2004) Methods in Molecular Biology 287, Epigenetics Protocols 137-149).
(§3) Assays are carried out as described (Kun et al. (2004) Biochemistry, 43:210-216) in triplicate (200 μM 3H labeled NAD+, 28 dpm/pmol, 0.5 pmol PARP-1, 3 mM spermine, pH 7.3 t=7.5 min). Identical results are obtained when ATP is replaced by its non-hydrolysable analog (Kun et al. (2004) Biochemistry, 43:210-216).

Assay [3] addresses T3, PARP-1 activity of Jurkat cell nuclei (Homo sapiens, UniProt P09874).
T3 construct: endogenous in cells; host or cells: Jurkat cell nuclei
Kind of assay: Effect of ATP on the PARP-1 activity of Jurkat cell nuclei. Format: biochemical. The note with it: 1 mM ATP; isolated Jurkat cell nuclei; FIG. 2. Here is the method: Poly(ADP-ribose)glycohydrolase (PARG) is purchased from Biomol or Alexis Co, which enzymes are equal in performance. Jurkat cells are cultured as reported (Buday et al. (1996) J Biol Chem 271:6159-6163) and nuclei are prepared by a published method (Smirnova et al. (2000) J Biol Chem 275:9377-9384). Enzymatic assays for PARP-1 are performed as published (deMurcia (2000) From DNA-damage and Stress Signalling to Cell Death: Poly ADP-ribosylation Reactions). PARG activity is analyzed with polyADP-ribosylated PARP-1 as substrate, containing long chains synthesized with spermine as cofactor (Kun et al. (2004) Biochemistry 43:210-216), or short chains where the cofactor is histone H1. The polyADP-ribose is labeled either with 3H or by biotinylated-NAD. PARG activity is quantitatively measured either by assaying the liberated 3H-ADP-ribose by TLC (Kirsten et al. (1991) Exp Cell Res 194:1-8) (chromatography carried out on PEI-cellulose sheets with 0.9 M acetic acid and 0.3 M LiCl as solvent) or by immunoassay of the remaining biotinylated (ADP-ribose)n (Bakondi et al. (2004) Exp Dermatol 13:170-178). All other reagents are of highest analytical purity. […] After separating the proteins on a 8% SDS-PAGE gel, the nitrocellulose-blotted, labeled proteins are detected by incubating with streptavidine-HPO complex (1 μg/ml) and by fluorography. Triplicate results are expressed as densitometric units.

Assay [4] has as its target T3, PARP-1 activity of Jurkat cell nuclei. Kind of assay: Effect of BCNU on the ATP sensitivity of PARP-1 activity of Jurkat cell nuclei. Format: biochemical. The note with it: nuclei pre-incubated with 400 nM BCNU for 30 minutes; FIG. 3. Here is the method: Nuclei equivalent to 2×10^5 Jurkat cells are pre incubated in the presence of various concentrations of ATP. Then PARP activities are assayed by admixing biotinylated-NAD (5 μM final conc.) and incubating for ten minutes. After separating the proteins on a 8% SDS-PAGE gel, the nitrocellulose-blotted, labeled proteins are detected by incubating with streptavidine-HPO complex (1 μg/ml) and by fluorography. Triplicate results are expressed as densitometric units. Experiments in triplicate are carried out as described in FIG. 2, with the exception that pre incubation is done with 400 nM of BCNU for 30 minutes.

In assay [5] the target is T4, PARP-1 arginine-34 mutant (R34G, Zn2+ finger 1) (Homo sapiens, UniProt P09874, R34G).
T4 construct: made in house; host or cells: Sf9 (baculovirus)
T4 sequence (P09874 whole entry R34G): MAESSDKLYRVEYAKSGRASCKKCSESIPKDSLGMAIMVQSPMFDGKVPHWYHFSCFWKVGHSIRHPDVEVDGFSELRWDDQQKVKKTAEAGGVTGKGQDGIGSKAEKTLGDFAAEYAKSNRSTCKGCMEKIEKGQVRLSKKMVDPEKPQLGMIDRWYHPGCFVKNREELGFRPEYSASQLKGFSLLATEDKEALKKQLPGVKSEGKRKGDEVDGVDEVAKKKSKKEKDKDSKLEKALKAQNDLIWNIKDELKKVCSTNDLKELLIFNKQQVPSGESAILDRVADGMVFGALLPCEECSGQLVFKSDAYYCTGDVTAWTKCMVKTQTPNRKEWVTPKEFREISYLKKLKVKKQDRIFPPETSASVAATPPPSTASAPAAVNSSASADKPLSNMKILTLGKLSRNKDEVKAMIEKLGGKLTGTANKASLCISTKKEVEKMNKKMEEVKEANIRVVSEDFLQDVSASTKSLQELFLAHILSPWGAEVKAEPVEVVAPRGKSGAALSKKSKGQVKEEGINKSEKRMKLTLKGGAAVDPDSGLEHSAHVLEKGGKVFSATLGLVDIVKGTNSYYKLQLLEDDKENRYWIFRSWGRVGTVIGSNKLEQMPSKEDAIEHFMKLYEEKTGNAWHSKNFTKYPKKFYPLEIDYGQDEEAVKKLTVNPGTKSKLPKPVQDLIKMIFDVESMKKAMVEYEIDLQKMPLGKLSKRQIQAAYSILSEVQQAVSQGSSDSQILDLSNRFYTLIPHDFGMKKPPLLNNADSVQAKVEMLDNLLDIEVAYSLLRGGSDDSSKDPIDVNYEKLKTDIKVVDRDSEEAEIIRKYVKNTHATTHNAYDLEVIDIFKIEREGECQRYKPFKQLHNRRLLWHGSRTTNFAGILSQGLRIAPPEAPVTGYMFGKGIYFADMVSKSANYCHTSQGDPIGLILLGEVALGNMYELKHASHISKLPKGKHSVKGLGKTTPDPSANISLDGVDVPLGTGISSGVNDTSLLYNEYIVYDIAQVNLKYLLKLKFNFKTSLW
Kind of assay: Enzymatic activity of arginine-34 (R34G) mutant PARP-1 with ATP. Particulars: arginine-34 replaced by glycine in Zn2+ finger 1; 200 μM NAD+, 3 mM spermine, pH 7.3; FIG. 1. Format: biochemical.
Text: as §2, §3

The subject of the next assay is inflammation. Kind of assay: Treatment of a subject suffering from inflammation. Format: in vivo. Particulars: orally or parenterally; after few days. The protocol: A subject suffering from inflammation is treated with a therapeutically effective amount of compound of formula
as §1

Molecules are shown by their SMILES.

T3 sequence (P09874 whole entry): as the sequence (P09874 whole entry R34G) above, with G34R counted along it
T2 sequence (P09874 whole entry R138I): as the sequence (P09874 whole entry R34G) above, with G34R, R138I counted along it
T1 sequence (Q86W56 whole entry): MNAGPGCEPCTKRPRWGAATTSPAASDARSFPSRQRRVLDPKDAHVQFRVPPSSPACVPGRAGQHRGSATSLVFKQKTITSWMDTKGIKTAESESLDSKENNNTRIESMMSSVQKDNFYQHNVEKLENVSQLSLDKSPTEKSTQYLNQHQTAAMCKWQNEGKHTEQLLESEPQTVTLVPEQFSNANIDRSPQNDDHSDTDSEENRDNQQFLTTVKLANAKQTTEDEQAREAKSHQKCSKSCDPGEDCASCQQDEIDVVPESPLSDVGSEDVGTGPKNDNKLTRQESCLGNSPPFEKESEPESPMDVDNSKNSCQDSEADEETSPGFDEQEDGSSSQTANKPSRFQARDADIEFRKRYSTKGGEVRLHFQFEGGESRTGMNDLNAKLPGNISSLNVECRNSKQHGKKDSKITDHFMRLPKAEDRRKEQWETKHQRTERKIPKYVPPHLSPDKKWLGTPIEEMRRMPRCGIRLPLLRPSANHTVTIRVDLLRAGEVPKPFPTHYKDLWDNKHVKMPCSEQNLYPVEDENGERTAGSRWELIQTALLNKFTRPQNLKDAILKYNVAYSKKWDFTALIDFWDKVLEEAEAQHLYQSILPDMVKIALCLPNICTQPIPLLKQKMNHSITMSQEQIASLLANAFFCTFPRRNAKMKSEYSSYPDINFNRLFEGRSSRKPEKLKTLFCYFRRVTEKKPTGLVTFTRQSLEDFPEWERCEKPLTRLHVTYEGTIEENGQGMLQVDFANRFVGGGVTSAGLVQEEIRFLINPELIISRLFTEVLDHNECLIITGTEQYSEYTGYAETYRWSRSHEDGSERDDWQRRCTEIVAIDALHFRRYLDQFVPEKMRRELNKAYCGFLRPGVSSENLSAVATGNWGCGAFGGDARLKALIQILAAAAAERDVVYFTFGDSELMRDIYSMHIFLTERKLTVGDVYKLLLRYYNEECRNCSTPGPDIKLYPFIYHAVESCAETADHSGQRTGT

Consider `O=c1ccc2c(I)c(O)ccc2o1` [drawing 14], for which, in the assay with solid tumor colon cancer, the “symptoms of the cancer” value is “markedly reduced”.
Consider `O=c1ccc2c(I)c(O)ccc2o1` [drawing 26], for which the “symptoms of CNS disease” value in the assay with CNS disease is “markedly reduced”.
As for `Nc1ncnc2c1ncn2[C@@H]1O[C@H](COP(=O)(O)OP(=O)(O)OP(=O)(O)O)[C@@H](O)[C@H]1O` [ATP], the “effect on PARG activity (decay of long PAR polymer)” value in assay [1] was “significantly accelerates”. Moreover, the “exonucleotidase activity of PARG (liberation of ADP-ribose)” value with purified PARG (6 mM ATP, long chain polymers as substrate, FIG. 6) is “activation”. In addition, the “acceleration of decay of longer ADP-ribose oligomers by PARG” value in the assay with purified PARG (long-chain PAR (average chain length 50 ADPR), PARG 15 mU/assay, FIG. 5) is on record as “accelerated”. In addition, in the assay with purified PARG (short-chain PAR, PARG 15 mU/assay, FIG. 5), the “acceleration of degradation of short ADP-ribose oligomers by PARG” value is on record as “not accelerated”. Further, in assay [2], the “effect of the mutation on the inhibitory action of ATP on PARP-1” value is listed as “negligible effect”. Further, in assay [3], the “inhibition of PARP-1 activity in nuclei” value is given as 80%. Further, the “response to DNA damage by BCNU as assayed by PARP-1 activity, with externally added ATP” value in assay [4] is reported as “completely removed”. In addition, the “inhibitory action of ATP on PARP-1 enzymatic activity” value in assay [5] is “abolished”.
`O=c1ccc2c(I)c(O)ccc2o1` [drawing 20]: the symptoms of inflammation result in the assay on inflammation is on record as “markedly reduced”.
